Test results taken from patent US20220040280A1, “INHIBITORS AND USES THEREOF” (UNIVERSITY OF CANBERRA, priority 2016, published 2022).
“Also recorded” adds a separate entry of the source. Residues, ends and D or L forms follow the SMILES beside them. *: point of attachment. Myristoyl = CCCCCCCCCCCCCC(=O)*

How the values were obtained:
MDA-MB-231 cells = settings: 100 μM, FIG. 21
Method: (§3) 5×10^4 MCF7 or MDA-MB-231 cells were seeded with 1 mL of complete DMEM in 12 well plates overnight. […] Samples were harvested by trypsinisation followed by washing with DPBS containing 2% HI-FBS. FACS staining were performed using anti-human CD44-APC, anti-human CD24-PE, Hoechst, and anti-human EpCAM antibody cocktails. Data was collected from a BD FACSLSR-II flow cytometer. Treestar FlowJo was used for data analysis.

[1] = target: T1, LSD1 phosphorylated at serine 111 (LSD1s111p) (Homo sapiens, UniProt O60341); experiment: Confocal microscopy of LSD1s111p in MDA-MB-231 cells treated with peptide inhibitors; assay type: cell-based; settings: relative to control, FIG. 4
T1 construct: endogenous in cells; host or cells: MCF7 (non-stimulated or PMA-stimulated) and MDA-MB-231 breast cancer cells
Method: (§1) Cells were probed with either rabbit antibodies to LSD1s111p (Merck ABE1462), EGFR (AB2430), MET (ab51067), PD-L1 (sc-50298), goat antibodies to PD-L1 (sc-19091), SC-14033), (sc-19096), mouse antibodies to Cytokeratin (Miltenyi 130-090-866), CSV (Abnova H00007431-M08), vimentin (SC-6260) followed by visualisation with secondary anti mouse Alexa-Fluor 568 (A10037), secondary anti rabbit Alexa-Fluor 488 (A21206) or secondary anti goat Alexa-Fluor 633 (A21082).
(§2) MDA-MB-231 or MCF7 cells were treated with one of L1, L2 or L3 and a control. Cells were then fixed with 3.7% formaldehyde and permeabilized with 2% Triton-X-100, then probed with a primary mouse antibody against LSD1 or a primary rabbit antibody against PD-L1, EGFR or MET, followed by visualization with a secondary goat antibody to mouse or rabbit immunoglobulins conjugated to Alexa-Fluor 488. Confocal laser scanning microscopy was used to measure the Fn/c (ratio of nuclear to cytoplasmic fluorescent intensity) ratio of LSD1 with Fiji-imageJ or the total nuclear fluorescence of PD-L1, EGFR or MET. Values are plotted with significant differences indicated using the Mann-Whitney T-test, with at least 20 cells counted per sample. Representative images for each treatment are shown.

EGFR = experiment: Confocal microscopy of EGFR in MDA-MB-231 cells treated with peptide inhibitors; assay type: cell-based, human; settings: in comparison to control, FIG. 23
Method: as §2

PD-L1 [2] = experiment: Confocal microscopy of PD-L1 in MCF7 cells treated with peptide inhibitors; assay type: cell-based, human; settings: for abrogation of nuclear PD-L1 expression: epithelial non-stimulated MCF7 cells, compared with stimulated cells; for Fn/c ratio (nuclear bias) of PD-L1: peptide treated MCF7 cells; for cytoplasmic/surface expression of PD-L1 (TCFI): stimulated MCF7 cells; for cytoplasmic/surface expression of PD-L1 (TCFI) / expression of nuclear PD-L1 (TNFI): FIG. 5; for expression of nuclear PD-L1 (TNFI): stimulated, mesenchymal MCF7 cells
Method: as §1, §2

MET = experiment: Confocal microscopy of MET in MDA-MB-231 cells treated with peptide inhibitors; assay type: cell-based, human; settings: in comparison to control, FIG. 24
Method: as §2

LSD1 = target: T2, LSD1 (Homo sapiens, UniProt O60341); experiment: LSD1 nuclear translocation in MDA-MB-231 cells, confocal microscopy; assay type: cell-based; settings: FIG. 19 and FIG. 31
T2 construct: endogenous in cells; host or cells: MCF7 (non-stimulated or PMA-stimulated) and MDA-MB-231 breast cancer cells
Method: as §2
Confocal laser scanning microscopy was performed on MDA-MB-231 cells treated with a LSD1 peptide inhibitor, L1, L2 or L3, or vehicle alone. Cells were fixed with 3.7% formaldehyde and permeabilized with 2% Triton-X-100, and then probed with a primary mouse antibody to LSD1, followed by the corresponding secondary antibody conjugated to Alexa-Fluor 488. Confocal laser scanning microscopy was used to determine the Fn/c ratio of LSD1 with image-J. Values are plotted with significant differences indicated. Data shown represent the mean±SE for at least 20 individual cells.

MCF7 cells = settings: PMA stimulated MCF7 cells, 50 μM and 100 μM tested, FIG. 20
Method: as §3

PD-L1 [3] = experiment: Confocal microscopy of PD-L1 in MDA-MB-231 cells treated with peptide inhibitors; assay type: cell-based, human; settings: for cytoplasmic/surface expression of PD-L1 (TCFI) / expression of nuclear PD-L1 (TNFI) / PD-L1 nuclear expression: MDA-MB-231 cells; for cytoplasmic/surface expression of PD-L1 (TCFI) / expression of nuclear PD-L1 (TNFI): FIG. 6; for PD-L1 nuclear expression: in comparison to the control, FIG. 22 (50 μM and 100 μM); for Fn/c ratio (nuclear bias) of PD-L1: peptide treated MDA-MB-231 cells
Method: as §1, §2

[4] = target: T1, LSD1 phosphorylated at serine 111 (LSD1s111p); experiment: Confocal microscopy of LSD1s111p in MCF7 cells treated with peptide inhibitors; assay type: cell-based; settings: stimulated and non-stimulated MCF7 cells, relative to control, FIG. 4
Method: as §1, §2

[5] = test system: MDA-MB-231 breast cancer cells; experiment: Flow cytometry of stimulated MDA-MB-231 cells (PD-L1, CD44, CD24); assay type: cell-based, human
Method: MCF7 and MDA-MB-231 cells were obtained from the American Type Culture Collection (Manassas, Va.). Cells were cultured in DMEM (Invitrogen, Life Technologies, Carlsbad, Calif.) supplemented with 10% FBS, 2 mM L-glutamine, and 1% penicillin-streptomycin-neomycin. MCF7 cells were stimulated with 1.32 ng/ml phorbol 12-myristate 13-acetate (PMA) (Sigma-Aldrich, St Louis, Mo.) or 5 ng/ml recombinant TGF-β1 (R&D Systems, Minneapolis, Minn.) for 60 h. For the co-culture assay MDA-MB-231 cells were stimulated with Jurkat T-cells at defined ratios.
Isolated PBMCs and CTCs were stained with CD45−APC, pan-cytokeratin (CK)-FITC, EpCAM-Percp-Cy5.5 and PD-L1-BV421 antibodies. Co-cultured MDA-MB-231 cells were stained with CD44, CD24 and PD-L1. Flow cytometric analysis was performed on single cell suspensions for using the BD LSR II Flow Cytometer.

[6] = test system: MDA-MB-231 breast cancer cells; experiment: as above; assay type: cell-based, human; settings: IFNγ 10 μg/mL, PMA 24 ng/mL, 24 or 48 hours
[7] = stimulated MDA-MB-231, 24 hours
[8] = stimulated MDA-MB-231, 48 hours

nuclear expression of LSD1s111p (TNFI) [1] | nuclear expression of LSD1s111p (TNFI) [4] | SMILES | cancer stem cell formation (MDA-MB-231 cells) | EGFR nuclear expression (TNFI) (EGFR) | abrogation of nuclear PD-L1 expression (PD-L1 [2]) | Fn/c ratio (nuclear bias) of PD-L1 (PD-L1 [2]) | cytoplasmic/surface expression of PD-L1 (TCFI) (PD-L1 [2]) | expression of nuclear PD-L1 (TNFI) (PD-L1 [2]) | MET nuclear expression (TNFI) (MET) | nuclear translocation of LSD1 (Fn/c) (LSD1) | cytoplasmic/surface expression of PD-L1 (TCFI) (PD-L1 [3]) | expression of nuclear PD-L1 (TNFI) (PD-L1 [3]) | PD-L1 nuclear expression (PD-L1 [3]) | Fn/c ratio (nuclear bias) of PD-L1 (PD-L1 [3]) | also measured
significantly abrogated | significantly abrogated | CCCCCCCCCCCCCC(=O)N[C@@H](CCCNC(=N)N)C(=O)N[C@@H](CCCNC(=N)N)C(=O)N[C@H](C(=O)N[C@@H](C)C(=O)N[C@@H](CCCNC(=N)N)C(=O)N[C@@H](CCCNC(=N)N)C(=O)N[C@@H](CCCCN)C(=O)N[C@@H](CCCNC(=N)N)C(=O)N[C@@H](C)C(=O)N[C@@H](CCCCN)C(=O)N[C@H](C(=O)O)C(C)C)[C@@H](C)O [Peptide L2, Myristoyl-RRTARRKRAKV-OH] (Myristoyl-RRTARRKRAKV-OH) | significant reduction | reduction | lessened | strongly nuclear | significantly inhibited | significantly abrogated | significant abrogation | inhibited; also recorded: clearly abrogated | significantly inhibited | significantly abrogated | abrogated | strongly nuclear | cancer stem cell formation (MCF7 cells): inhibited
significantly abrogated | significantly abrogated | CCCCCCCCCCCCCC(=O)N[C@@H](CCCNC(=N)N)C(=O)N[C@@H](Cc1c[nH]c2ccccc12)C(=O)N[C@@H](CCCNC(=N)N)C(=O)N[C@@H](CCCNC(=N)N)C(=O)N[C@H](C(=O)N[C@@H](C)C(=O)N[C@@H](CCCNC(=N)N)C(=O)N[C@@H](CCCNC(=N)N)C(=O)N[C@@H](CCCCN)C(=O)N[C@@H](CCCNC(=N)N)C(=O)N[C@@H](C)C(=O)N[C@@H](CCCCN)C(=O)N[C@H](C(=O)O)C(C)C)[C@@H](C)O [Peptide L3, Myristoyl-RWRRTARRKRAKV-OH] (Myristoyl-RWRRTARRKRAKV-OH) | significant reduction | reduction | lessened | strongly nuclear | significantly inhibited | significantly abrogated | significant abrogation | inhibited; also recorded: clearly abrogated | significantly inhibited | significantly abrogated | abrogated | strongly nuclear | –
– | – | CCCCCCCCCCCCCC(=O)O[C@@H]1[C@@H](C)[C@@]2(O)[C@@H](C=C(CO)C[C@]3(O)C(=O)C(C)=C[C@@H]23)[C@@H]2C(C)(C)[C@]12OC(C)=O [PMA, phorbol 12-myristate 13-acetate, reference compound] | – | – | – | – | – | – | – | – | – | – | – | – | Median Fluorescence Intensity (MFI) of PD-L1, change on stimulation ([5]; MDA-MB-231 cells): decreased; CD44^hi CD24^lo (Frequency of parent, %) [5, 7]: 98.4%; CD44^hi CD24^lo, PD-L1+ (Frequency of parent, %) [5, 7]: 98.6%; Mean Fluorescence Intensity of Comp Pacific Blue-A PD-L1, CD44^hi CD24^lo, PD-L1+ subset [5, 7]: 3145; Mean Fluorescence Intensity of Comp Pacific Blue-A PD-L1, PD-L1+ subset [5, 7]: 3126; PD-L1+ (Frequency of parent, %) [5, 7]: 98.5%; CD44^hi CD24^lo (Frequency of parent, %) [5, 8]: 98.3%; CD44^hi CD24^lo, PD-L1+ (Frequency of parent, %) [5, 8]: 99.2%; Mean Fluorescence Intensity of Comp Pacific Blue-A PD-L1, CD44^hi CD24^lo, PD-L1+ subset [5, 8]: 4016; Mean Fluorescence Intensity of Comp Pacific Blue-A PD-L1, PD-L1+ subset [5, 8]: 3983; PD-L1+ (Frequency of parent, %) [5, 8]: 99.1%; frequency (%) of PD-L1+ cells, change on stimulation [6]: not altered
